Source: PubChem BioAssay (NCI)
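Five concentrations, 48 hours, 96-well plates. The concentration for full growth arrest is given as TGI.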

Columns and labels:
Assay in all cases: DTP human tumour cell line panel, 48 h
ACHN renal = system: ACHN renal
IGROV1 ovarian = system: IGROV1 ovarian
MALME-3M melanoma = system: MALME-3M melanoma
SK-MEL-28 melanoma = system: SK-MEL-28 melanoma
SR leukemia = system: SR leukemia
EKVX NSCLC = system: EKVX NSCLC
NCI/ADR-RES ovarian = system: NCI/ADR-RES ovarian
UACC-62 melanoma = system: UACC-62 melanoma
SK-MEL-2 melanoma = system: SK-MEL-2 melanoma
COLO 205 colon = system: COLO 205 colon
K-562 leukemia = system: K-562 leukemia
CAKI-1 renal = system: CAKI-1 renal
MDA-MB-231 breast = system: MDA-MB-231 breast
HCT-15 colon = system: HCT-15 colon
MDA-MB-435 = system: MDA-MB-435
SNB-19 CNS = system: SNB-19 CNS
SF-268 CNS = system: SF-268 CNS
SF-295 CNS = system: SF-295 CNS
LOX IMVI melanoma = system: LOX IMVI melanoma
786-0 renal = system: 786-0 renal
NCI-H23 lung = system: NCI-H23 lung
HL-60(TB) leukemia = system: HL-60(TB) leukemia
CCRF-CEM leukemia = system: CCRF-CEM leukemia
BT-549 breast = system: BT-549 breast
RPMI-8226 leukemia = system: RPMI-8226 leukemia
OVCAR-4 ovarian = system: OVCAR-4 ovarian
HOP-62 NSCLC = system: HOP-62 NSCLC
U251 CNS = system: U251 CNS
NCI-H460 lung = system: NCI-H460 lung
OVCAR-8 ovarian = system: OVCAR-8 ovarian
DU-145 prostate = system: DU-145 prostate
A549 NSCLC = system: A549 NSCLC
TK-10 renal = system: TK-10 renal
SNB-75 CNS = system: SNB-75 CNS
KM12 colon = system: KM12 colon
HOP-92 NSCLC = system: HOP-92 NSCLC
M14 melanoma = system: M14 melanoma
NCI-H522 lung = system: NCI-H522 lung
SK-MEL-5 melanoma = system: SK-MEL-5 melanoma
UACC-257 melanoma = system: UACC-257 melanoma
UO-31 renal = system: UO-31 renal
OVCAR-3 ovarian = system: OVCAR-3 ovarian
SN12C renal = system: SN12C renal
T-47D breast = system: T-47D breast
SW-620 colon = system: SW-620 colon
PC-3 prostate = system: PC-3 prostate
HS 578T breast = system: HS 578T breast
SK-OV-3 ovarian = system: SK-OV-3 ovarian
MOLT-4 leukemia = system: MOLT-4 leukemia
SF-539 CNS = system: SF-539 CNS
OVCAR-5 ovarian = system: OVCAR-5 ovarian
MDA-N = system: MDA-N
A498 renal = system: A498 renal
HT29 colon = system: HT29 colon
RXF 393 renal = system: RXF 393 renal
MCF7 breast = system: MCF7 breast
HCC-2998 colon = system: HCC-2998 colon
NCI-H226 lung = system: NCI-H226 lung
HCT-116 colon = system: HCT-116 colon

Measured: TGI

CC(C)(C)OC(=O)n1c(Cl)c(C=O)c2ccccc21
46.6 µM: 786-0 renal
43 µM: HOP-62 NSCLC
84.5 µM: MDA-MB-231 breast
68.1 µM: LOX IMVI melanoma
40.8 µM: OVCAR-3 ovarian
82.9 µM: M14 melanoma
46.1 µM: NCI-H460 lung
36.2 µM: SF-268 CNS
39.2 µM: KM12 colon
67.3 µM: UACC-257 melanoma
52.9 µM: ACHN renal
44.3 µM: RPMI-8226 leukemia
58 µM: NCI/ADR-RES ovarian
76.6 µM: EKVX NSCLC
39.9 µM: MALME-3M melanoma
70.4 µM: HCT-15 colon
54.3 µM: SN12C renal
41.3 µM: UO-31 renal
39.6 µM: DU-145 prostate
53.4 µM: TK-10 renal
64.6 µM: PC-3 prostate
35.4 µM: CAKI-1 renal
56.8 µM: HOP-92 NSCLC
72.3 µM: OVCAR-5 ovarian
96.4 µM: SK-MEL-2 melanoma
79.4 µM: CCRF-CEM leukemia
89.1 µM: SF-539 CNS
52.5 µM: BT-549 breast
43.3 µM: UACC-62 melanoma
47 µM: NCI-H23 lung
not listed: RXF 393 renal | MCF7 breast | HCC-2998 colon | NCI-H226 lung | HCT-116 colon
> 100 µM: all other assays above

CCOc1cc2c(=O)oc3c(OC)ccc4ccc(c1OC)c2c43
79.3 µM: OVCAR-8 ovarian
97.5 µM: MDA-MB-231 breast
20.4 µM: HCT-116 colon
90.7 µM: NCI-H522 lung
not listed: SR leukemia | BT-549 breast | RPMI-8226 leukemia
> 100 µM: all other assays above

CO[C@]12CC(=O)C3(C(C[C@H]4CC5CC[C@H]6C[C@@H](OC(C)=O)CC[C@]6(OC(C)=O)C5C[C@@]43C)C1)C1C[C@H]3[C@@H]4CC[C@H]5C[C@@H](OC(C)=O)CC[C@]5(OC(C)=O)[C@H]4CC[C@]3(C)C12 (stereo partly specified)
not listed: HL-60(TB) leukemia | BT-549 breast | NCI-H522 lung | RXF 393 renal | NCI-H226 lung
> 100 µM: all other assays above

O=S1(=O)OCCCOS(=O)(=O)C1(Br)Br
not listed: IGROV1 ovarian | K-562 leukemia | MDA-MB-231 breast | NCI-H460 lung | HOP-92 NSCLC | SF-539 CNS | A498 renal | HCC-2998 colon
> 100 µM: all other assays above

CC(C)C1=C(Cc2ccccc2)C(=O)O/C1=C\c1ccc(O)c(Cl)c1
28 µM: UACC-62 melanoma | OVCAR-3 ovarian
30.4 µM: SF-268 CNS
31.4 µM: A498 renal
27.5 µM: UO-31 renal
33.2 µM: SF-539 CNS
30.9 µM: SK-MEL-28 melanoma
29.5 µM: SF-295 CNS
33.1 µM: OVCAR-8 ovarian
30.7 µM: MDA-MB-435 | SN12C renal
26.9 µM: SR leukemia
30.3 µM: EKVX NSCLC | MCF7 breast | U251 CNS
28.4 µM: A549 NSCLC
33.7 µM: SNB-19 CNS | SK-OV-3 ovarian
34.9 µM: SW-620 colon
28.1 µM: ACHN renal | RPMI-8226 leukemia | MOLT-4 leukemia
28.8 µM: HCT-116 colon
34.6 µM: COLO 205 colon
32.3 µM: LOX IMVI melanoma | OVCAR-5 ovarian
36.7 µM: BT-549 breast
33.9 µM: HS 578T breast
28.7 µM: HCC-2998 colon
38.8 µM: K-562 leukemia
29.6 µM: HCT-15 colon
31.7 µM: HOP-62 NSCLC | PC-3 prostate
37.7 µM: HL-60(TB) leukemia
27.8 µM: OVCAR-4 ovarian
29.9 µM: MDA-MB-231 breast
30.1 µM: MDA-N
32 µM: KM12 colon
32.9 µM: CAKI-1 renal
31.2 µM: RXF 393 renal | SK-MEL-5 melanoma
31.3 µM: M14 melanoma
32.8 µM: UACC-257 melanoma | HT29 colon
30.5 µM: IGROV1 ovarian | 786-0 renal
31.1 µM: NCI-H460 lung
32.4 µM: DU-145 prostate
30.6 µM: MALME-3M melanoma | NCI-H226 lung | SNB-75 CNS
25.8 µM: NCI-H23 lung
46.8 µM: CCRF-CEM leukemia
31.8 µM: TK-10 renal

O=C1CCC2(c3ccc(Cl)cc3)Nc3ncncc3N12 (stereo unspecified)
not listed: SK-MEL-28 melanoma | SR leukemia | COLO 205 colon | CAKI-1 renal | MDA-MB-231 breast | HL-60(TB) leukemia | RPMI-8226 leukemia | HOP-62 NSCLC | SK-MEL-5 melanoma | T-47D breast | A498 renal | RXF 393 renal | HCT-116 colon
> 10 µM: all other assays above

COc1ccc(N2C(=O)C3c4[nH]c5ccccc5c4C4c5ccccc5CC4C3C2=O)cc1 (stereo unspecified)
not listed: RPMI-8226 leukemia | SK-MEL-5 melanoma | HS 578T breast
> 100 µM: all other assays above
